ChEMBL document CHEMBL1201862, “PubChem BioAssay data set” (2004)
The source made the active and inactive calls.

Legend:
[1] = target: T1, Calpain-2 catalytic subunit (Sus scrofa, UniProt P43367); assay: pig calpain II inhibitor potency, dose response, biochemical, fluorogenic peptide substrate (AID 1420); type: functional
T1 sequence (P43367 whole entry): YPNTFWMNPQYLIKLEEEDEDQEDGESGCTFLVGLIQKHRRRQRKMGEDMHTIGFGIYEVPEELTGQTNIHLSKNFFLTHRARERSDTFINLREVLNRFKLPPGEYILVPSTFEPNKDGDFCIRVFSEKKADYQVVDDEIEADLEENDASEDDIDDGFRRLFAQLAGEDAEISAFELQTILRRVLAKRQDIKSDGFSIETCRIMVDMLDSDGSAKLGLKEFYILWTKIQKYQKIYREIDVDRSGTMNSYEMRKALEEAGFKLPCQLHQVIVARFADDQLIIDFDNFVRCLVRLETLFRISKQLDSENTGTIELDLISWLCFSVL

Beta-galactosidase = Beta-galactosidase (Escherichia coli, UniProt Q8VNN2); assay: Dose response counterscreen for EBI2 assay utilizing the enzyme, b-galactosidase.; type: functional
[2] = C. albicans growth with fluconazole, confirmation, fluorescence, retest (AID 2467); type: functional, cell-based
[3] = NIH-3T3 fibroblast cytotoxicity, dose response, cytotoxicity control, cell-based, fluorescence, Alamar Blue, secondary assay (AID 2327); type: functional;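 also: NIH-3T3 mouse fibroblasts cultured with fluconazole at 8 µg/mL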
[4] = target: Eukaryotic translation initiation factor 4E (Mus musculus, UniProt P63073); assay: eIF4E–eIF4G protein interaction inhibitors, dose response, biochemical, TR-FRET (AID 855); type: functional;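 also: potency for disrupting eIF4E binding to eIF4GI seen as loss of FRET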
[5] = control 3'UTR Renilla luciferase suppression, dose response, counter-screen for Shn3 inhibitor project, cell-based, Clone20-Shn3RL, cherry-picked (AID 624133); type: functional
[6] = HepG2 cell cytotoxicity, dose response, cytotoxicity control for Shn3 inhibitor project, CellTiter-Glo, cherry-picked (AID 624134); type: functional, cell-based
[7] = inhibitors of firefly luciferase expression or activity, dose response, H4 neuroglioma cells, luminescence (AID 1990); type: functional, cell-based
[8] = Luminescence Cell-Based Dose Response HTS to Identify Inhibitors of 5'UTR Stem-Loop Driven Prion Protein mRNA Translation in H4 Neuroglioblastoma Cells. [Related pubchem assays: 1827 (Project Summary), 1813 (Primary HTS)]; type: functional
Nonstructural protein 1 = Nonstructural protein 1 (Influenza A virus, UniProt Q194T2); type: functional, Influenza A virus (A/California/07/2009(H1N1))
[9] = Shn3 3'UTR reporter inhibitors, dose response, cell-based, Clone20 osteoblasts, firefly luciferase, cherry-picked (AID 624132); type: functional;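 also: firefly luciferase luminescence from reporter carrying the Shn3 3'UTR in osteoblasts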
[10] = inhibitors of SNCA 5'UTR-driven reporter translation, confirmation, H4 neuroglioma cells, luminescence (AID 1988); type: functional, cell-based
INS1 = assay: beta cell apoptosis inhibitors, cytokine rescue, dose response, luminescence, retest (AID 449756); type: functional, cell-based; conditions: Rattus norvegicus;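 also: cell death triggered by IL-1 beta plus TNF-alpha plus IFN-gamma mixture; protective hits raise ATP signal compared with cytokine alone wells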
[11] = target: Heat shock protein HSP 90-alpha (Homo sapiens, UniProt P07900); type: functional, organism-based
[12] = Luminescence Cell-Based Dose Retest to Confirm Inhibitors of Cancer Stem Cells. [Related pubchem assays (depositor defined):AID2717, AID2721]; type: functional; conditions: Homo sapiens
[13] = inhibitors of clade B AD8 Env fusion, dose response, cell-based, cherry-pick (AID 652062); type: functional;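 also: luciferase signal from cell-cell fusion driven by HIV-1 clade B AD8 Env; potency is for inhibitors of fusion seen as a drop in luminescence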
[14] = ZM109 Env clade C HIV-1 fusion inhibitors, dose response, HeLa effector, CEM target cells, luciferase, cherry-pick (AID 652058); type: functional, cell-based
[15] = inhibitors of HIV Env-driven cell fusion, dose response, cherry-pick (AID 652057); type: functional, cell-based
[16] = target: T2, Ubiquitin-conjugating enzyme E2 N (Homo sapiens, UniProt P61088); type: functional;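 also: Dose-response confirmation in a TR-FRET assay detecting UBC13-driven polyubiquitin chain formation, inhibition measured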
T2 sequence (P61088 whole entry): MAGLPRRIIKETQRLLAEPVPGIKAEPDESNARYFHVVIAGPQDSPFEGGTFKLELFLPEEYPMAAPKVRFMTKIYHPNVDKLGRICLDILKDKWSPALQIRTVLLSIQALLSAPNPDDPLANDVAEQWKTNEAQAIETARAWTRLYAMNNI

Paired box protein Pax-8 = Paired box protein Pax-8 (Homo sapiens, UniProt Q06710); assay: inhibitors of PAX8-driven TPO luciferase reporter, dose response, RMG-I cells, cherry-pick (AID 687027); type: functional, cell-based;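 also: luciferase reporter driven by Pax8 target thyroperoxidase promoter measured by SteadyGlo luminescence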
Protein RecA = target: T3, Protein RecA (Mycobacterium tuberculosis, UniProt P9WHJ3); assay: Fluorescence Cell-Free Homogeneous Dose Retest to Identify Inhibitors of RecA-Intein Splicing Activity. [Related pubchem assays (depositor defined):AID2097, AID2223, AID489010, AID492950]; type: functional
T3 sequence (P9WHJ3 whole entry): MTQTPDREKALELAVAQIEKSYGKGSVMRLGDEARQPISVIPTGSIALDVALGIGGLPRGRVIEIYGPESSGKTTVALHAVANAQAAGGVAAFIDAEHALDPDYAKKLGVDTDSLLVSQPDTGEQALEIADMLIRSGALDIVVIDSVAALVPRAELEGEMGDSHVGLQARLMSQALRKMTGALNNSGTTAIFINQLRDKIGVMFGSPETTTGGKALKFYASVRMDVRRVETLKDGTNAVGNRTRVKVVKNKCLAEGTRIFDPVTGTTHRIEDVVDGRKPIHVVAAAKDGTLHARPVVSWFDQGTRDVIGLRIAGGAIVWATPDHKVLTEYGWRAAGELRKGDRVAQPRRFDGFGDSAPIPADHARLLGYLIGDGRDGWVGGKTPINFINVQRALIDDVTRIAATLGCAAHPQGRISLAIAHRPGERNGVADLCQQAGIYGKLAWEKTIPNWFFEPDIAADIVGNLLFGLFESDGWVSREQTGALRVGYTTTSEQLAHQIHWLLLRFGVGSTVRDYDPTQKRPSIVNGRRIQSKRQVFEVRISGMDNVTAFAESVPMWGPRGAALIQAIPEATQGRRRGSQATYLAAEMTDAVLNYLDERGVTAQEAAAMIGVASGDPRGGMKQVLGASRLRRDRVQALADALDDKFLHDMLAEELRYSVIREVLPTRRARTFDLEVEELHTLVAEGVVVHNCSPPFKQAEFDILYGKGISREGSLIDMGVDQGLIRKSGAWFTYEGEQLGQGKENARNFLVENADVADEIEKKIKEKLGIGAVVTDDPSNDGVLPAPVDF

[17] = cytotoxicity toward NIH3T3 fibroblasts, dose response, counter-screen, cell-based, ATP luminescence, mouse fibroblasts (AID 2010); type: functional;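 also: cells exposed to compound for about 90 hours before reading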
cells [18] = type: functional, cell-based
[19] = target: T4, Replicative DNA helicase DnaB (Mycobacterium tuberculosis, UniProt P9WMR3); assay: DnaB intein splicing inhibitors, dose response, biochemical, cell-free fluorescence (AID 449749); type: functional
T4 sequence (P9WMR3 whole entry): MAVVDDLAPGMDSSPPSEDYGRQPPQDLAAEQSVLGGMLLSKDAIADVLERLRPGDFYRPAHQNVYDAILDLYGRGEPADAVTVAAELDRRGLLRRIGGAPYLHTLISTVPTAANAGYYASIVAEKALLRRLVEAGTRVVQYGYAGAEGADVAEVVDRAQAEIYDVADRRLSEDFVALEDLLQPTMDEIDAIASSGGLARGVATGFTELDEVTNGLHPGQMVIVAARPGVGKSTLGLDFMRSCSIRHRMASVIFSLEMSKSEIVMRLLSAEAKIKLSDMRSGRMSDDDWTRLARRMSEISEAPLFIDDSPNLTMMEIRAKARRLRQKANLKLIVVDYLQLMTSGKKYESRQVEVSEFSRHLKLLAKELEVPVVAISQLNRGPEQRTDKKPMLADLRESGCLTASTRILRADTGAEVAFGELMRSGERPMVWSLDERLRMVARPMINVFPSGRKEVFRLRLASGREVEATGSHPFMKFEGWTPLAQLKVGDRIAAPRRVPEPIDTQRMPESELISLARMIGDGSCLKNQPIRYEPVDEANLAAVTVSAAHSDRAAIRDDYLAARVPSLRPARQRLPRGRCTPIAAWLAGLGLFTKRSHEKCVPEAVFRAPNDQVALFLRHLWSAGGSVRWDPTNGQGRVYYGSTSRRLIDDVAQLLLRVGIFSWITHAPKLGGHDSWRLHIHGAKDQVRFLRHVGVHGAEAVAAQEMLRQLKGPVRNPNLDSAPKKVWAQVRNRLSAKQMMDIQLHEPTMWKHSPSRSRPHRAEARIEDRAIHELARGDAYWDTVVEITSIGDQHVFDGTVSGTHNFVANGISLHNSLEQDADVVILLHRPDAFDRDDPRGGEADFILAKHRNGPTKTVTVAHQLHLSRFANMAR

[20] = inhibitors of intracellular T. cruzi replication, confirmation, NIH3T3 host cells, beta-gal luminescence (AID 2044); type: functional, cell-based;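 also: intracellular parasites grown in NIH/3T3 mouse fibroblasts as host cells; luminescent beta-galactosidase reporter signal from transgenic T. cruzi replicating inside host cells; inhibitors lower the luminescence signal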
cells [21] = type: functional, cell-based; remark: listed apart in the source
[22] = target: Induced myeloid leukemia cell differentiation protein Mcl-1 (Homo sapiens, UniProt Q07820); type: functional
Sequence of Induced myeloid leukemia cell differentiation protein Mcl-1 (Q07820 whole entry): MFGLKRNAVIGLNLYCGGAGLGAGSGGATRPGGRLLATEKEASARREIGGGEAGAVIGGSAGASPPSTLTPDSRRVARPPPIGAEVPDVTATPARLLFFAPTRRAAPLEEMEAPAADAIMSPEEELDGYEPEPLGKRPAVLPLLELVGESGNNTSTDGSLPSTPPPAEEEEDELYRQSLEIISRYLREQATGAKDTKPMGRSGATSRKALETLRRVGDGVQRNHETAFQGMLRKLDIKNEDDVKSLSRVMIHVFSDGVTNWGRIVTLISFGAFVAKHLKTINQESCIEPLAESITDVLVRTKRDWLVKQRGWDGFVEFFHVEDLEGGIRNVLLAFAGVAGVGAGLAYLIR

Sequence of Nonstructural protein 1 (Q194T2 whole entry): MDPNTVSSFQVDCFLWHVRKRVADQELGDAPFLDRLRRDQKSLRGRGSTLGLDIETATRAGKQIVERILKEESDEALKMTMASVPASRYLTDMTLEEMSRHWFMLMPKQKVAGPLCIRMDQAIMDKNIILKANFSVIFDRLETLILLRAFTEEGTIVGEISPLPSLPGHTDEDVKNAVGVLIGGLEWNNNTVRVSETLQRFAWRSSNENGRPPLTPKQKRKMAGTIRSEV
Sequence of Eukaryotic translation initiation factor 4E (P63073 whole entry): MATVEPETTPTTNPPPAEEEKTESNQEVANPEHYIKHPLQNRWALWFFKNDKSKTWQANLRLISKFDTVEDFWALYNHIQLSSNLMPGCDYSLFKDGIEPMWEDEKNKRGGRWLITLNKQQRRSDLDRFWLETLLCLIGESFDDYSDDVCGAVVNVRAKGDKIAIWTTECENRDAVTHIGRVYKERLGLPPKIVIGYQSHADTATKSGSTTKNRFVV
Sequence of Beta-galactosidase (Q8VNN2 whole entry): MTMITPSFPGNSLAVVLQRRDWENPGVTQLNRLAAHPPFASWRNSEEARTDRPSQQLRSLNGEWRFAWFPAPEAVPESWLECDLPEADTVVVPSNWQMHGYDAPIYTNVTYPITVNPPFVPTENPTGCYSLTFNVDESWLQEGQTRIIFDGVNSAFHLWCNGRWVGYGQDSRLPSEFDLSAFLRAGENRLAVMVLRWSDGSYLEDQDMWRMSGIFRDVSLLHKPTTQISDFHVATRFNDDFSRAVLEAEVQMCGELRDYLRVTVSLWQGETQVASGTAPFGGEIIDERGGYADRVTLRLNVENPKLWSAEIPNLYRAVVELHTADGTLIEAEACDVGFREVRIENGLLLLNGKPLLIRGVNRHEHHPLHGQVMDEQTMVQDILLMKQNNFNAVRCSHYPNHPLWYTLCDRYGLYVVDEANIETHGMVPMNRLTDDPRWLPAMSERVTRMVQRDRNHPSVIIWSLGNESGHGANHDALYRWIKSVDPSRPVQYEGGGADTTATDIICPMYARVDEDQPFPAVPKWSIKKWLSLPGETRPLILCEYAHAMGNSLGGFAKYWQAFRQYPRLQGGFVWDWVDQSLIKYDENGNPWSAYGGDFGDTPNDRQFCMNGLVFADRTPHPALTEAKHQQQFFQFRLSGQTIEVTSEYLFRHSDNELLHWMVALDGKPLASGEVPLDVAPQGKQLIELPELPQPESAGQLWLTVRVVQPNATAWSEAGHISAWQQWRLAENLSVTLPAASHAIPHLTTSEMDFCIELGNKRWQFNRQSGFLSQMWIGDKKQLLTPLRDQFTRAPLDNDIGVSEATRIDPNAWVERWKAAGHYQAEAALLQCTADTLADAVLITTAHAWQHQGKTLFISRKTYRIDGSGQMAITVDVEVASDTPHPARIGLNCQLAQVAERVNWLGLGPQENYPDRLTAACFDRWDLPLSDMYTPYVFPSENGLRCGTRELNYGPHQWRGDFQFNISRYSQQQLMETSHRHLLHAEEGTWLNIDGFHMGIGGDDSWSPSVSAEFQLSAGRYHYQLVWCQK
Sequence of Paired box protein Pax-8 (Q06710 whole entry): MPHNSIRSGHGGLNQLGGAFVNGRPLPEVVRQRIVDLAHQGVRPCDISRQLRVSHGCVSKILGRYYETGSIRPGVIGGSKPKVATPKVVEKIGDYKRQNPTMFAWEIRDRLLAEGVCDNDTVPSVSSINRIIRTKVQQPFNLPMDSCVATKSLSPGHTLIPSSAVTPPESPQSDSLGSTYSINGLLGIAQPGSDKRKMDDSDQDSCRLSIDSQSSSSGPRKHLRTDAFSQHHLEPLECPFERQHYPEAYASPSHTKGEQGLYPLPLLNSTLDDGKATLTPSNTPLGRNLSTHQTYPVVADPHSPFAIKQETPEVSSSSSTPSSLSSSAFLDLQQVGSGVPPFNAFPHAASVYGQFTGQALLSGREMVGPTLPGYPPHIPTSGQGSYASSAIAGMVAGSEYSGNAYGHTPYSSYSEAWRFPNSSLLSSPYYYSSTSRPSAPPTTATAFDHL

O=C(Cn1nc(-c2ccc3c(c2)OCCO3)ccc1=O)Nc1cccc(NC(=O)c2ccccn2)c1
IC50 [1]: > 50 µM (not active)

O=C(/C=C/c1ccccc1)N1CCN(c2c(Cl)cccc2[N+](=O)[O-])CC1
IC50 (Beta-galactosidase): > 80 µM (inactive)

O=C(COc1ccc(Cl)cc1)N1CCN(C(=O)c2cccc(F)c2)CC1
IC50 (Beta-galactosidase): > 80 µM (inactive)

Cc1cccc(NC(=O)NCc2ccc3[nH]c(C)cc3c2)c1
IC50 [1]: 7.26 µM (not active)

Cc1ccc2oc(=O)c3cnn(CC(=O)N(CCC(C)C)Cc4ccco4)c3c2c1
IC50 (Beta-galactosidase): > 80 µM (inactive)

O=S(=O)(Cc1ccc(Cl)cc1)N1CCN(Cc2ccccc2)CC1
EC50 [2]: > 38 µM (not active) | EC50 [3]: > 160 µM (inactive)

COc1ccccc1N1CCN(C(=O)c2cc3c(C)nc4ccccc4c3o2)CC1
IC50 (Beta-galactosidase): > 80 µM (inactive)

CCCC(=O)n1nc(NCc2ccc(OC)cc2)nc1NCc1ccc(OC)cc1
IC50 [1]: < 0.4 µM (not active)

CC1=CC2=NC(=O)CC(C)(C(=O)N(CC(=O)NC3CCCC3)c3cc(C)cc(C)c3)N2C=C1 (configuration not stated)
IC50 [4]: 50 µM (inactive)

OCc1ccc(O)c2ncccc12
EC50 [2]: > 38 µM (not active) | AC50 [5]: 2.24 µM (active) | AC50 [6]: 5.94 µM (active) | EC50 [7]: 712 nM (active) | EC50 [8]: 2.95 µM (active) | IC50 (Nonstructural protein 1): 10.5 µM (active) | AC50 [9]: 1.66 µM (active) | EC50 [3]: > 150 µM (inactive) | EC50 [10]: 1.2 µM (active) | AC50 (INS1): 3.37 µM (active)

CCN(CC)C1CC(=O)N(c2cccc(Cl)c2)C1=O (configuration not stated)
AC50 [11]: 2.21 µM (active)

CC1CC1C(=O)OCC(=O)Nc1ccccc1Oc1ccccc1 (configuration not stated)
IC50 [1]: 33.3 µM (not active)

O=C(COc1ccc(Br)cc1)N1CCN(S(=O)(=O)/C=C/c2ccccc2)CC1
IC50 (Beta-galactosidase): > 80 µM (inactive)

Cc1ccc(S(=O)(=O)N(C(=O)c2ccncc2)c2ccc(OC(=O)c3ccncc3)cc2)cc1
AC50 [11]: 1.23 µM (active)

CC1CCN(c2nc3ccccc3n2CC(=O)c2ccccc2)CC1
IC50 [1]: > 50 µM (not active)

Cc1cccc(N2CCN(C(=O)c3cc4c(=O)[nH]c5ccccc5c4n3C)CC2)c1C
IC50 (Beta-galactosidase): > 80 µM (inactive)

COc1ccc(NC(=O)c2c(N)no[n+]2[O-])cc1
EC50 [2]: 2.19 µM (active) | AC50 [12]: 754 nM (active) | EC50 [3]: 1.6 µM (active)

COc1ccc2c(n1)Sc1nc3ccccc3nc1N2
AC50 [11]: 1.96 µM (active)

CCOc1cc(C(=O)Nc2ccc3c4c(cccc24)C(=O)N3CC)cc(OCC)c1OCC
IC50 [4]: > 64 µM (inactive)

CCCCCCSc1nnc(-c2cnn(-c3ccccc3)c2-n2cccc2)n1C
IC50 [1]: 7.59 µM (not active)

COc1ccc(-c2cc(C3CCN(c4cc(Cl)nc(N)n4)CC3)[nH]n2)cc1
AC50 [13]: 26.4 µM (active) | AC50 [14]: 295 nM (active) | AC50 [15]: 42.9 µM (active) | IC50 [16]: > 20 µM (inactive)

Cc1cc(C)n2nc(C(=O)NCc3ccccc3)cc2n1
IC50 [4]: > 64 µM (inactive)

CCOC(=O)C1CCN(C(=O)/C=C/c2ccc(OC)cc2)CC1
IC50 (Beta-galactosidase): > 80 µM (inactive)

N#C/C(=C/c1ccc(O)cc1)C(=O)NCc1ccc(Cl)cc1
AC50 [11]: 3.08 µM (active)

NC(=O)C1CCN(C2CC(=O)N(c3ccc(F)c(Cl)c3)C2=O)CC1 (configuration not stated)
AC50 [11]: 3.04 µM (active)

CNC(=S)N1N=C(c2ccc(OC)cc2)CC1c1ccc(N(C)C)cc1 (configuration not stated)
IC50 (Beta-galactosidase): > 80 µM (inactive)

COCCNC(=O)CCCn1c(=O)c2cc(OC)c(OC)cc2n(CC(=O)NCCC2=CCCCC2)c1=O
EC50 [2]: 3.16 µM (active) | EC50 [3]: > 160 µM (inactive)

CC(=NNC(=S)N1CCC1)c1ccccn1
AC50 [11]: 1.58 µM (active) | IC50 (Nonstructural protein 1): 2.09 µM (active) | AC50 (Paired box protein Pax-8): < 260 nM (active)

CC(C)=CCc1c(O)ccc(C2COc3c(CC=C(C)C)c(O)cc(O)c3C2=O)c1O (configuration not stated)
AC50 [11]: 15.9 µM (active)

O=C1CCN(Cc2ccccc2)C=C1c1ccc(Br)cc1
IC50 (Beta-galactosidase): > 80 µM (inactive)

O=c1c2c3c(sc2ncn1/N=C/c1ccc([N+](=O)[O-])o1)CCCC3
AC50 [12]: 4450 nM (active) | AC50 [11]: 0.637 µM (active)

Cc1nc2ccccc2nc1N/N=C/c1ccc(O)cc1O
EC50 (Protein RecA): > 380 µM (inconclusive) | IC50 (Nonstructural protein 1): 14.1 µM (active) | EC50 [17]: 8.31 µM (active) | EC50 (cells [18]): > 350 µM (not active) | AC50 [19]: > 380 µM (inactive) | EC50 [20]: 2.05 µM (active) | EC50 (cells [21]): 12.1 µM (active) | AC50 (INS1): 0.882 µM (active)

COc1ccc(OC)c(NC(=O)C(=O)/C=C(\O)c2cc(OC)ccc2OC)c1
EC50 [2]: > 38 µM (not active) | EC50 [3]: 29.9 µM (inconclusive)

N#Cc1c(NC(=O)c2cccc(S(=O)(=O)Nc3ccc(C(=O)O)cc3)c2)sc2c1CCCC2
IC50 [1]: 13.7 µM (not active) | IC50 [22]: 6.52 µM (active)
